Test results as given in ChEMBL document CHEMBL1201861, “Genomics of Drug Sensitity in Cancer screening data, Wellcome Trust Sanger Institute”.
Where a SMILES comes first, the peptide text is derived from it. The star is where a group is joined. Cbz = O=C(OCc1ccccc1)*

What was measured:
[1] = system: LP-1; assay: cells; format: functional, cell-based, Homo sapiens;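 further: growth inhibition of human LP-1 cells, with the read-out taken from a cell viability assay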
Description: SANGER: Inhibition of human LP-1 cell growth in a cell viability assay.

[2] = system: SIG-M5; assay: cells; format: functional, cell-based, Homo sapiens;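 further: cell viability assay read-out, measuring how strongly growth of cultured human SIG-M5 cells is inhibited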
Description: SANGER: Inhibition of human SIG-M5 cell growth in a cell viability assay.

[3] = system: RPMI-6666; assay: cells; format: functional, cell-based, Homo sapiens
Description: SANGER: Inhibition of human RPMI-6666 cell growth in a cell viability assay.

[4] = system: NCI-H2171; assay: cells; format: functional, cell-based, Homo sapiens;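 further: growth inhibition of human NCI-H2171 cells, read out by a cell viability assay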
Description: SANGER: Inhibition of human NCI-H2171 cell growth in a cell viability assay.

[5] = system: NCI-H1417; assay: cells; format: functional, cell-based, Homo sapiens;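 further: human NCI-H1417 cells, growth inhibition determined with a cell viability readout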
Description: SANGER: Inhibition of human NCI-H1417 cell growth in a cell viability assay.

[6] = system: NCI-H1963; assay: cells; format: functional, cell-based, Homo sapiens;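 further: cell growth inhibition of the human line, determined with a cell viability assay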
Description: SANGER: Inhibition of human NCI-H1963 cell growth in a cell viability assay.

[7] = system: ST486; assay: SANGER: Inhibition of human ST486 cell growth in a cell viability assay.; format: functional, cell-based
[8] = system: YT; assay: cells; format: functional, cell-based, Homo sapiens
Description: SANGER: Inhibition of human YT cell growth in a cell viability assay.

[9] = system: SU-DHL-1; assay: SANGER: Inhibition of human SU-DHL-1 cell growth in a cell viability assay.; format: functional, cell-based
[10] = system: NCI-H2081; assay: cells; format: functional, cell-based, Homo sapiens;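 further: growth inhibition of human NCI-H2081 cells, read out with a cell viability assay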
Description: SANGER: Inhibition of human NCI-H2081 cell growth in a cell viability assay.

[11] = system: NCI-H322M; assay: cells; format: functional, cell-based, Homo sapiens;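 further: cell viability assay measuring inhibition of growth of human NCI-H322M cells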
Description: SANGER: Inhibition of human NCI-H322M cell growth in a cell viability assay.

[12] = system: D-392MG; assay: cells; format: functional, cell-based; details: Homo sapiens
[13] = system: FaDu; assay: cells; format: functional, cell-based; details: Homo sapiens;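 further: cell viability readout of growth inhibition in FaDu cells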
Description: SANGER: Inhibition of human FADU cell growth in a cell viability assay.

[14] = system: HEC-1; assay: cells; format: functional, cell-based; details: Homo sapiens;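 further: growth inhibition of the cell line, read out with a cell viability assay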
Description: SANGER: Inhibition of human HEC-1 cell growth in a cell viability assay.

[15] = system: EGI-1; assay: cells; format: functional, cell-based; details: Homo sapiens;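 further: cell viability readout used to gauge growth inhibition of EGI-1 cells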
Description: SANGER: Inhibition of human EGI-1 cell growth in a cell viability assay.

[16] = system: 8305C; assay: cells; format: functional, cell-based; details: Homo sapiens
Description: SANGER: Inhibition of human 8305C cell growth in a cell viability assay.

[17] = system: DBTRG-05MG; assay: cells; format: functional, cell-based; details: Homo sapiens;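 further: cell viability assay measuring growth inhibition of human DBTRG-05MG cells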
Description: SANGER: Inhibition of human DBTRG-05MG cell growth in a cell viability assay.

[18] = system: ACHN; assay: cells; format: functional, cell-based; details: Homo sapiens;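 further: cell viability read-out used to gauge how strongly growth of human ACHN cells is suppressed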
Description: SANGER: Inhibition of human ACHN cell growth in a cell viability assay.

[19] = system: NCI-H1437; assay: cells; format: functional, cell-based; details: Homo sapiens;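 further: growth inhibition of human NCI-H1437 cells, read out by a cell viability assay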
Description: SANGER: Inhibition of human NCI-H1437 cell growth in a cell viability assay.

[20] = system: SiHa; assay: cells; format: functional, cell-based; details: Homo sapiens;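 further: Viability-based readout of growth inhibition in SiHa cells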
Description: SANGER: Inhibition of human SiHa cell growth in a cell viability assay.

[21] = system: CAMA-1; assay: cells; format: functional, cell-based; details: Homo sapiens;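 further: growth inhibition of CAMA-1 cells, read out with a cell viability assay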
Description: SANGER: Inhibition of human CAMA-1 cell growth in a cell viability assay.

[22] = system: COR-L105; assay: cells; format: functional, cell-based; details: Homo sapiens
Description: SANGER: Inhibition of human COR-L105 cell growth in a cell viability assay.

[23] = system: MDA-MB-415; assay: cells; format: functional, cell-based; details: Homo sapiens
[24] = system: SAOS-2; assay: cells; format: functional, cell-based; details: Homo sapiens;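 further: growth inhibition of human Saos-2 cells determined by a cell viability assay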
Description: SANGER: Inhibition of human Saos-2 cell growth in a cell viability assay.

[25] = system: M14; assay: cells; format: functional, cell-based; details: Homo sapiens;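 further: growth inhibition of M14 cells, read out with a cell viability assay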
Description: SANGER: Inhibition of human M14 cell growth in a cell viability assay.

[26] = system: BFTC-909; assay: cells; format: functional, cell-based; details: Homo sapiens
Description: SANGER: Inhibition of human BFTC-909 cell growth in a cell viability assay.

[27] = system: SW1417; assay: cells; format: functional, cell-based; details: Homo sapiens;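 further: growth inhibition of human SW1417 cells, read out with a cell viability assay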
Description: SANGER: Inhibition of human SW1417 cell growth in a cell viability assay.

[28] = system: MHH-ES-1; assay: cells; format: functional, cell-based; details: Homo sapiens
Description: SANGER: Inhibition of human MHH-ES-1 cell growth in a cell viability assay.

[29] = system: U-118-MG; assay: cells; format: functional, cell-based; details: Homo sapiens
Description: SANGER: Inhibition of human U-118-MG cell growth in a cell viability assay.

[30] = system: U2OS; assay: cells; format: functional, cell-based, U-2-OS; details: Homo sapiens;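 further: growth inhibition of human U-2-OS cells, determined with a cell viability assay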
Description: SANGER: Inhibition of human U-2-OS cell growth in a cell viability assay.

[31] = system: COLO-792; assay: cells; format: functional, cell-based; details: Homo sapiens
Description: SANGER: Inhibition of human COLO-792 cell growth in a cell viability assay.

[32] = system: HOS; assay: cells; format: functional, cell-based; details: Homo sapiens;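 further: growth inhibition of human HOS cells, read out with a cell viability assay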
Description: SANGER: Inhibition of human HOS cell growth in a cell viability assay.

[33] = system: NCI-H2030; assay: cells; format: functional, cell-based; details: Homo sapiens;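 further: growth inhibition of human NCI-H2030 cells, read out by a cell viability assay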
Description: SANGER: Inhibition of human NCI-H2030 cell growth in a cell viability assay.

[34] = system: COLO-678; assay: cells; format: functional, cell-based; details: Homo sapiens
Description: SANGER: Inhibition of human COLO-678 cell growth in a cell viability assay.

[35] = system: NY; assay: cells; format: functional, cell-based; details: Homo sapiens
Description: SANGER: Inhibition of human NY cell growth in a cell viability assay.

[36] = system: A2780; assay: cells; format: functional, cell-based; details: Homo sapiens;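 further: growth inhibition of A2780 cells, read out with a cell viability assay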
Description: SANGER: Inhibition of human A2780 cell growth in a cell viability assay.

[37] = system: SW626; assay: cells; format: functional, cell-based; details: Homo sapiens;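 further: growth inhibition of SW626 cells, measured with a cell viability assay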
Description: SANGER: Inhibition of human SW626 cell growth in a cell viability assay.

[38] = system: RPMI-2650; assay: cells; format: functional, cell-based; details: Homo sapiens
Description: SANGER: Inhibition of human RPMI-2650 cell growth in a cell viability assay.

[39] = system: Panc1005; assay: cells; format: functional, cell-based; details: Homo sapiens;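 further: growth inhibition of human PANC-10-05 cells, measured by a cell viability assay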
Description: SANGER: Inhibition of human PANC-10-05 cell growth in a cell viability assay.

[40] = system: HuP-T4; assay: cells; format: functional, cell-based; details: Homo sapiens;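 further: cell viability assay measuring how much HuP-T4 cell growth is inhibited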
Description: SANGER: Inhibition of human HuP-T4 cell growth in a cell viability assay.

[41] = system: CAL-12T; assay: cells; format: functional, cell-based; details: Homo sapiens;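 further: growth inhibition of human CAL-12T cells, read out with a cell viability assay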
Description: SANGER: Inhibition of human CAL-12T cell growth in a cell viability assay.

[42] = system: KYSE-450; assay: cells; format: functional, cell-based; details: Homo sapiens;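 further: cell growth inhibition measured by a viability assay in human KYSE-450 cells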
Description: SANGER: Inhibition of human KYSE-450 cell growth in a cell viability assay.

[43] = system: T98G; assay: cells; format: functional, cell-based; details: Homo sapiens;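 further: growth inhibition of T98G cells, read out by a cell viability assay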
Description: SANGER: Inhibition of human T98G cell growth in a cell viability assay.

[44] = system: Detroit 562; assay: cells; format: functional, cell-based; details: Homo sapiens;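 further: growth inhibition of human Detroit 562 cells, read out by a cell viability assay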
Description: SANGER: Inhibition of human Detroit562 cell growth in a cell viability assay.

[45] = system: SK-N-AS; assay: cells; format: functional, cell-based; details: Homo sapiens;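 further: growth inhibition of human SK-N-AS cells, measured with a cell viability assay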
Description: SANGER: Inhibition of human SK-N-AS cell growth in a cell viability assay.

[46] = system: COLO-679; assay: cells; format: functional, cell-based; details: Homo sapiens
Description: SANGER: Inhibition of human COLO-679 cell growth in a cell viability assay.

[47] = system: GAMG; assay: cells; format: functional, cell-based; details: Homo sapiens;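 further: cell growth inhibition measured by a viability assay in the GAMG human cell line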
Description: SANGER: Inhibition of human GAMG cell growth in a cell viability assay.

[48] = system: ESS-1; assay: cells; format: functional, cell-based; details: Homo sapiens;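 further: growth inhibition of human ESS-1 cells, read out by a cell viability assay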
Description: SANGER: Inhibition of human ESS-1 cell growth in a cell viability assay.

[49] = system: SNU-423; assay: cells; format: functional, cell-based; details: Homo sapiens
Description: SANGER: Inhibition of human SNU-423 cell growth in a cell viability assay.

[50] = system: NCI-H28; assay: cells; format: functional, cell-based; details: Homo sapiens;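 further: growth inhibition of human NCI-H28 cells, read out as cell viability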
Description: SANGER: Inhibition of human NCI-H28 cell growth in a cell viability assay.

[51] = system: C3A; assay: cells; format: functional, cell-based; details: Homo sapiens;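 further: growth inhibition of C3A human cells, quantified with a cell viability readout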
Description: SANGER: Inhibition of human C3A cell growth in a cell viability assay.

[52] = system: MDA-MB-231; assay: cells; format: functional, cell-based; details: Homo sapiens
Description: SANGER: Inhibition of human MDA-MB-231 cell growth in a cell viability assay.

[53] = system: MKN-45; assay: cells; format: functional, cell-based; details: Homo sapiens;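 further: growth inhibition of human MKN-45 cells, measured with a cell viability assay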
Description: SANGER: Inhibition of human MKN45 cell growth in a cell viability assay.

[54] = system: JEG-3; assay: cells; format: functional, cell-based; details: Homo sapiens;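 further: growth inhibition of human JEG-3 cells, read out with a cell viability assay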
Description: SANGER: Inhibition of human JEG-3 cell growth in a cell viability assay.

[55] = system: ChaGo-K-1; assay: cells; format: functional, cell-based; details: Homo sapiens;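 further: growth inhibition of ChaGo-K-1 cells, read out with a cell viability assay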
Description: SANGER: Inhibition of human ChaGo-K-1 cell growth in a cell viability assay.

[56] = system: CHL-1; assay: cells; format: functional, cell-based; details: Homo sapiens;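 further: cell growth inhibition, read out with a cell viability assay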
Description: SANGER: Inhibition of human CHL-1 cell growth in a cell viability assay.

[57] = system: HCC1954; assay: cells; format: functional, cell-based; details: Homo sapiens;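 further: growth inhibition of human HCC1954 cells, read out with a cell viability assay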
Description: SANGER: Inhibition of human HCC1954 cell growth in a cell viability assay.

[58] = system: NCI-H727; assay: cells; format: functional, cell-based; details: Homo sapiens;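 further: growth inhibition of human NCI-H727 cells, read out with a cell viability assay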
Description: SANGER: Inhibition of human NCI-H727 cell growth in a cell viability assay.

[59] = system: G-402; assay: cells; format: functional, cell-based; details: Homo sapiens
Description: SANGER: Inhibition of human G-402 cell growth in a cell viability assay.

COc1cc(N2CCC(N3CCN(C)CC3)CC2)ccc1Nc1ncc(Cl)c(Nc2ccccc2S(=O)(=O)C(C)C)n1 [TAE-684]
IC50 ([1]; Homo sapiens, LP-1): 1.87 µM
IC50 ([2]; Homo sapiens, SIG-M5): 0.292 µM
IC50 ([3]; Homo sapiens, RPMI-6666): > 2 µM
IC50 ([4]; Homo sapiens, NCI-H2171): > 2 µM
IC50 ([5]; Homo sapiens, NCI-H1417): > 2 µM
IC50 ([6]; Homo sapiens, NCI-H1963): > 2 µM
IC50 ([7]; Homo sapiens, ST486): > 2 µM
IC50 ([8]; Homo sapiens, YT): > 2 µM
IC50 ([9]; Homo sapiens, SU-DHL-1): 0.0486 µM
IC50 ([10]; Homo sapiens, NCI-H2081): > 2 µM
IC50 ([11]; Homo sapiens, NCI-H322M): > 2 µM

CC(C)C[C@@H](C=O)NC(=O)[C@H](CC(C)C)NC(=O)[C@H](CC(C)C)NC(=O)OCc1ccccc1 [MG-132] (Cbz-Leu-Leu-Leu-aldehyde)
IC50 ([1]; lp-1): > 1 µM
IC50 ([2]; sig-m5): > 1 µM
IC50 ([3]; rpmi-6666): > 1 µM
IC50 ([4]; nci-h2171): > 1 µM
IC50 ([5]; nci-h1417): > 1 µM
IC50 ([6]; Homo sapiens, NCI-H1963): > 1 µM
IC50 ([6]; nci-h1963): > 1 µM
IC50 ([7]; Homo sapiens, ST486): > 1 µM
IC50 ([7]; st486): > 1 µM
IC50 ([8]; yt): > 1 µM
IC50 ([9]; su-dhl-1): > 1 µM
IC50 [12]: 0.191 µM
IC50 ([10]; nci-h2081): > 1 µM
IC50 ([11]; nci-h322m): > 1 µM

CO[C@@H]1[C@H](N(C)C(=O)c2ccccc2)C[C@H]2O[C@]1(C)n1c3ccccc3c3c4c(c5c6ccccc6n2c5c31)C(=O)NC4 [MIDOSTAURIN]
IC50 [13]: > 0.512 µM
IC50 [14]: > 0.512 µM
IC50 [15]: > 0.512 µM
IC50 [16]: > 0.512 µM
IC50 [17]: > 0.512 µM
IC50 [18]: 0.331 µM
IC50 ([7]; Homo sapiens, ST486): 0.349 µM
IC50 [19]: > 0.512 µM
IC50 ([9]; Homo sapiens, SU-DHL-1): > 0.512 µM
IC50 [12]: 0.331 µM

COc1ccc(N(C(=O)Oc2c(C)cccc2C)c2ccnc(Nc3ccc(N4CCN(C)CC4)cc3)n2)c(OC)c1
IC50 ([1]; Homo sapiens, LP-1): > 5.12 µM
IC50 ([2]; Homo sapiens, SIG-M5): > 5.12 µM
IC50 ([3]; Homo sapiens, RPMI-6666): > 5.12 µM
IC50 ([4]; Homo sapiens, NCI-H2171): > 5.12 µM
IC50 ([5]; Homo sapiens, NCI-H1417): > 5.12 µM
IC50 ([6]; Homo sapiens, NCI-H1963): > 5.12 µM
IC50 ([7]; Homo sapiens, ST486): > 5.12 µM
IC50 ([8]; Homo sapiens, YT): > 5.12 µM
IC50 ([9]; Homo sapiens, SU-DHL-1): > 5.12 µM
IC50 ([10]; Homo sapiens, NCI-H2081): > 5.12 µM
IC50 ([11]; Homo sapiens, NCI-H322M): > 5.12 µM

O=C(NCCCNc1nc(Nc2cccc(NC(=O)N3CCCC3)c2)ncc1I)c1cccs1 [BX-795]
IC50 [20]: > 5 µM
IC50 [13]: > 5 µM
IC50 [21]: > 5 µM
IC50 [14]: 4.09 µM
IC50 [22]: > 5 µM
IC50 [23]: > 5 µM
IC50 [24]: 4.12 µM
IC50 [25]: > 5 µM
IC50 [26]: 4.65 µM
IC50 [27]: > 5 µM
IC50 [15]: > 5 µM
IC50 [28]: 2.73 µM
IC50 [16]: 3.61 µM
IC50 [29]: > 5 µM
IC50 [30]: 1.59 µM
IC50 [31]: > 5 µM
IC50 [32]: 1.57 µM
IC50 [33]: > 5 µM
IC50 [34]: > 5 µM
IC50 [35]: > 5 µM
IC50 [36]: > 5 µM
IC50 [37]: > 5 µM
IC50 [17]: > 5 µM
IC50 [38]: > 5 µM
IC50 [39]: > 5 µM
IC50 [40]: > 5 µM
IC50 [41]: 4.79 µM
IC50 [42]: > 5 µM
IC50 [18]: > 5 µM
IC50 [43]: 2.39 µM
IC50 [44]: 3.89 µM
IC50 [45]: > 5 µM
IC50 [46]: > 5 µM
IC50 [47]: 2.83 µM
IC50 [48]: > 5 µM
IC50 [49]: 3.91 µM
IC50 [50]: 2.85 µM
IC50 [51]: > 5 µM
IC50 [52]: > 5 µM
IC50 [53]: > 5 µM
IC50 [54]: > 5 µM
IC50 [19]: 2.77 µM
IC50 [55]: > 5 µM
IC50 [56]: 1.92 µM
IC50 [57]: > 5 µM
IC50 [12]: > 5 µM
IC50 [58]: > 5 µM
IC50 [59]: 1.47 µM
